Assay results: ChEMBL document CHEMBL1201862, “PubChem BioAssay data set” (2004)
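Five compound concentrations were applied to cells in 96-well plates for 48 hours; endpoints were derived by simple linear interpolation of the resulting dose-response curve. GI50 marks 50% less growth.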 Active and inactive are the calls of the source. Cut-off read from the data, not from the text of the source: active = GI50 up to about 1.1 µM and inactive = higher.

How the values were obtained:
Assay in all cases: DTP human tumour cell line panel, 48 h
786-0 = test system: 786-0
ACHN = test system: ACHN
COLO 205 = test system: COLO 205
Hs-578T = test system: Hs-578T
IGROV-1 = test system: IGROV-1
K562 = test system: K562
MDA-MB-231 = test system: MDA-MB-231
MDA-MB-435 = test system: MDA-MB-435
MOLT-4 = test system: MOLT-4
Malme-3M = test system: Malme-3M
NCI-H23 = test system: NCI-H23
NCI-H460 = test system: NCI-H460
NCI/ADR-RES = test system: NCI/ADR-RES
OVCAR-4 = test system: OVCAR-4
OVCAR-5 = test system: OVCAR-5
SF-268 = test system: SF-268
SNB-19 = test system: SNB-19
T47D = test system: T47D
TK-10 = test system: TK-10
HCC 2998 = test system: HCC 2998

| Compound | GI50 (786-0) | GI50 (ACHN) | GI50 (COLO 205) | GI50 (Hs-578T) | GI50 (IGROV-1) | GI50 (K562) | GI50 (MDA-MB-231) | GI50 (MDA-MB-435) | GI50 (MOLT-4) | GI50 (Malme-3M) | GI50 (NCI-H23) | GI50 (NCI-H460) | GI50 (NCI/ADR-RES) | GI50 (OVCAR-4) | GI50 (OVCAR-5) | GI50 (SF-268) | GI50 (SNB-19) | GI50 (T47D) | GI50 (TK-10) | GI50 (HCC 2998) |
| --- | --- | --- | --- | --- | --- | --- | --- | --- | --- | --- | --- | --- | --- | --- | --- | --- | --- | --- | --- | --- |
| COc1ccc(OC)c(-c2cc(C(=O)O)c3cc4ccccc4cc3n2)c1 | > 100 µM (inactive) | > 100 µM (inactive) | > 100 µM (inactive) | > 100 µM (inactive) | > 100 µM (inactive) | > 100 µM (inactive) | > 100 µM (inactive) | > 100 µM (inactive) | > 100 µM (inactive) | > 100 µM (inactive) | > 100 µM (inactive) | > 100 µM (inactive) | > 100 µM (inactive) | > 100 µM (inactive) | > 100 µM (inactive) | > 100 µM (inactive) | > 100 µM (inactive) | > 100 µM (inactive) | > 100 µM (inactive) | – |
| CN(C)CCC(=O)N1C/C(=C/c2ccccc2)C(=O)/C(=C\c2ccccc2)C1 | 1.49 µM (inactive) | 2.01 µM (inactive) | 2.24 µM (inactive) | 3.55 µM (inactive) | 2.59 µM (inactive) | 0.182 µM (active) | 0.735 µM (active) | 1.43 µM (inactive) | 0.313 µM (active) | 2.16 µM (inactive) | 2.29 µM (inactive) | 2.33 µM (inactive) | – | 2.17 µM (inactive) | 2.6 µM (inactive) | 2.74 µM (inactive) | 2.48 µM (inactive) | 4.82 µM (inactive) | 8.15 µM (inactive) | 1.06 µM (active) |
| C[C@]12O[C@@]3(C)O[C@@]3(C)[C@]3(C)O[C@]3(C)[C@@]1(C)O2 | > 100 µM (inactive) | > 100 µM (inactive) | > 100 µM (inactive) | > 100 µM (inactive) | – | > 100 µM (inactive) | > 100 µM (inactive) | > 100 µM (inactive) | > 100 µM (inactive) | > 100 µM (inactive) | > 100 µM (inactive) | – | > 100 µM (inactive) | > 100 µM (inactive) | > 100 µM (inactive) | > 100 µM (inactive) | > 100 µM (inactive) | 1.22 µM (inactive) | > 100 µM (inactive) | – |
| CC(=O)N1C(OCc2ccccc2)CCN1c1ccccc1 (stereo unspecified) | > 10 µM (inactive) | > 10 µM (inactive) | > 10 µM (inactive) | > 10 µM (inactive) | > 10 µM (inactive) | > 10 µM (inactive) | > 10 µM (inactive) | > 10 µM (inactive) | > 10 µM (inactive) | > 10 µM (inactive) | > 10 µM (inactive) | > 10 µM (inactive) | > 10 µM (inactive) | > 10 µM (inactive) | > 10 µM (inactive) | > 10 µM (inactive) | > 10 µM (inactive) | > 10 µM (inactive) | > 10 µM (inactive) | – |
| CC1C(c2ccccc2)NC(c2ccccc2)CC1(N)C#N (stereo unspecified) | > 100 µM (inactive) | > 100 µM (inactive) | 43.4 µM (inactive) | > 100 µM (inactive) | > 100 µM (inactive) | > 100 µM (inactive) | > 100 µM (inactive) | > 100 µM (inactive) | > 100 µM (inactive) | – | > 100 µM (inactive) | > 100 µM (inactive) | > 100 µM (inactive) | > 100 µM (inactive) | > 100 µM (inactive) | > 100 µM (inactive) | > 100 µM (inactive) | > 100 µM (inactive) | > 100 µM (inactive) | > 100 µM (inactive) |
| Cn1c(N(CCO)CCO)cnc1[N+](=O)[O-] | > 100 µM (inactive) | > 100 µM (inactive) | > 100 µM (inactive) | > 100 µM (inactive) | > 100 µM (inactive) | > 100 µM (inactive) | > 100 µM (inactive) | > 100 µM (inactive) | > 100 µM (inactive) | > 100 µM (inactive) | > 100 µM (inactive) | > 100 µM (inactive) | > 100 µM (inactive) | > 100 µM (inactive) | > 100 µM (inactive) | > 100 µM (inactive) | > 100 µM (inactive) | > 100 µM (inactive) | > 100 µM (inactive) | – |
| [O-][S+](CC1(O)CCCCC1)c1ccccc1 (stereo unspecified) | > 100 µM (inactive) | > 100 µM (inactive) | > 100 µM (inactive) | > 100 µM (inactive) | > 100 µM (inactive) | > 100 µM (inactive) | > 100 µM (inactive) | – | > 100 µM (inactive) | > 100 µM (inactive) | > 100 µM (inactive) | > 100 µM (inactive) | > 100 µM (inactive) | > 100 µM (inactive) | > 100 µM (inactive) | > 100 µM (inactive) | > 100 µM (inactive) | > 100 µM (inactive) | > 100 µM (inactive) | > 100 µM (inactive) |
| CN(C)CCCNc1ccnc2cc([N+](=O)[O-])ccc12 | 10.4 µM (inactive) | 19 µM (inactive) | 2.65 µM (inactive) | 17.9 µM (inactive) | 4.06 µM (inactive) | > 100 µM (inactive) | 13.3 µM (inactive) | 14.8 µM (inactive) | > 100 µM (inactive) | 3.44 µM (inactive) | 11.7 µM (inactive) | 4.97 µM (inactive) | 20 µM (inactive) | 3.35 µM (inactive) | 20.7 µM (inactive) | 21 µM (inactive) | – | 5.98 µM (inactive) | 30.7 µM (inactive) | – |
| NC(=O)c1cccc(OCC(O)CO)c1 (stereo unspecified) | > 100 µM (inactive) | > 100 µM (inactive) | > 100 µM (inactive) | > 100 µM (inactive) | > 100 µM (inactive) | > 100 µM (inactive) | > 100 µM (inactive) | – | > 100 µM (inactive) | – | > 100 µM (inactive) | > 100 µM (inactive) | > 100 µM (inactive) | > 100 µM (inactive) | > 100 µM (inactive) | > 100 µM (inactive) | > 100 µM (inactive) | > 100 µM (inactive) | > 100 µM (inactive) | > 100 µM (inactive) |
| C/C=C1\CC(C(=O)OCC)CCCCCCCCCCC1=O (stereo unspecified) | 70.1 µM (inactive) | 75 µM (inactive) | > 100 µM (inactive) | 28.9 µM (inactive) | 31.8 µM (inactive) | – | 58.6 µM (inactive) | 17.5 µM (inactive) | 29 µM (inactive) | 32.4 µM (inactive) | 37.6 µM (inactive) | 54.1 µM (inactive) | 34.7 µM (inactive) | 55.5 µM (inactive) | > 100 µM (inactive) | 53.5 µM (inactive) | 69.2 µM (inactive) | 26.7 µM (inactive) | > 100 µM (inactive) | – |
| CC(C)=Cc1cc(C)c2c(O)cc(C)c3c2c1C(C)=C(O)C3=O | 25.8 µM (inactive) | 25.5 µM (inactive) | 13 µM (inactive) | 27 µM (inactive) | 27.5 µM (inactive) | 13 µM (inactive) | 24.9 µM (inactive) | 26.5 µM (inactive) | 25.8 µM (inactive) | – | 23.4 µM (inactive) | 21.2 µM (inactive) | 30.1 µM (inactive) | – | 28.7 µM (inactive) | 21.1 µM (inactive) | 47.4 µM (inactive) | 21.2 µM (inactive) | – | – |
